Data set [1] is described as follows: Pharmacokinetic profiling, plasma concentration in mice. In kind it is in vivo, Swiss Albino mice. As for the experimental part:
(§1) These studies were performed at the GVKBioscience Pvt. LTD Contract Research and Development Organization (CRDO). Animals were housed in cages with clean bedding. Adult Swiss Albino male mice (weight = 20–35 g) were maintained and monitored for good health in accordance with GVKBioscience Pvt. LTD Test Facility SOPs and at the discretion of the laboratory animal veterinarian. Certified rodent diet was provided, and water was available ad libitum. A periodic analysis of the water was performed, and the results have been archived at the Test Facility. Environmental controls for the animal room were set to maintain a temperature of 22 to 25 °C, humidity of 40–70% relative humidity, and a 12-h light/12-h dark cycle. Animals have been dosed i.v. with 1 mg/kg of FHP01 i.p. with 10 mg/kg of compound or p.o. through gastric gavage needle with 50 mg/kg of compound. Next, mice were anesthetized using gaseous anesthesia and blood samples were collected at each time point, from 3 mice of respective group. After collection of blood samples at each time point, the blood samples were stored on ice, prior to centrifugation. Blood samples were centrifuged at 1540 rcf (5000 rpm), 4 °C for 10 min to separate plasma. Plasma was transferred to pre-labeled micro-centrifuge tubes and promptly frozen at −80 °C until analysis. Samples have been identified by test item, group, animal number, and collection time point. A fit-for-purpose bioanalytical method was developed for analyzing the plasma samples. One set of nine standards have been run before the sample batch and used for plotting the calibration curve. Quality control (QC) samples have been prepared at a minimum of three concentrations, i.e., LQC (not more than 5 times to that of lowest standard concentration), HQC (not less than 75% of the highest standard concentration), and MQC (between the low and high concentration). Minimum of 6 QC samples (three concentrations in duplicate). One Set of QC (LQC, MQC, and HQC) samples have been analyzed before and after the sample batch.

For data set [2], the system named is WNT signaling (TCF/LEF transcriptional activity). Nature of the data set: TCF/LEF luciferase reporter assay (WNT1/WNT3A) in MDA MB 231 cells. The following applies: MDA MB 231, 6 μM, 48 h. In kind it is cell-based, human. How it is done:
MDA MB 231 cells were seeded at 3 × 10^4 cells/well density in 12-well plates, in triplicate, and transfected with 250 ng of the M50 Super 8× TOPFlash reporter vector (Addgene Plasmid #12456) and 1 μg of expression vectors inducing the WNT pathway (Wnt1-V5, Addgene plasmid #43807, and Wnt3A-V5, Addgene plasmid #43810). Eight hours after transfection, cells were treated with FHP01, XAV939 (Merck, Kenilworth, NJ, USA) or DMSO for indicated times prior to lysis in Passive Lysis Buffer (Promega, Madison, WI, USA). Luciferase activity in cellular lysates was assessed on a Glomax 20/20 luminometer (Promega) using the Luciferase Assay System (Promega). Results were normalized for GFP expression, upon transfection with GFP coding vector (1 μg). Representative results from 3 independent experiments are shown (n = 3). Error bars represent the Standard Error of the Mean. All samples were read at least in triplicate.
On the technique in general: A reporter such as luciferase makes a cellular process visible.

A further data set deals with T47D cells. Nature of the data set: Cell viability / cytotoxicity assay (cell counting). The following applies: Homo sapiens, 72 h. Format: cell-based. How it is done:
(§2) Cells were seeded at 3–5 × 10^4 cells/well density (depending on cell lines) in 12-well plates, in triplicate, and maintained at 37 °C in 5% CO2. After 24 h, cells were treated with different concentrations of indicated drugs in a range from 0 to 100 μM (0, 0.1, 1, 10, 50, 100 μM). After 72 h incubation, cells were washed in PBS and harvested. Cell number of each sample was determined with Z2 Coulter Counter (Beckman Coulter, Brea, CA, USA), in triplicate. Data about cell viability were plotted in GraphPad Prism 8.0 software (GraphPad Software, San Diego, CA, USA) to draw dose-response curve and to calculate IC50.

Another data set concerns MCF7 cells. Described as above. In kind it is cell-based. As to conditions: Homo sapiens, MCF7, 72 h. How it is done: as §2
For another data set, the system named is SKBR3 cells. The description is as above. In kind it is cell-based. As to conditions: Homo sapiens, SK-BR-3; SKBR3, 72 h. How it is done:
as §2

Assay in data set [3]: as above
In kind it is cell-based. The following applies: human, MCF10A control cells. As for the experimental part: as §2

A short description of data set [4]: Drug distribution to brain and liver in mice. Format: in vivo, Swiss Albino mice. As to conditions: for Kp at 4 h / Kp at 8 h: male, Swiss Albino, mouse, ip, 10 mg/kg, ng/g normalized against ng/mL. How it is done: as §1
For the analyses of drug distribution to brain and liver, whole body perfusion was performed using chilled saline in the defined group of animals followed by decapitation for tissue collection. The chest of the mice was exposed, the abdominal aorta was clamped, and both jugular veins were cut. Intra-cardial perfusion was performed through an insertion in the left ventricle. Mice brains and livers have been collected and immediately washed, dried, weighed and freeze at −80 °C until homogenization. The protocol has been reviewed and approved by the Institutional Animal Ethics Committee (IAEC).

[5] abbreviates: brain/plasma, i.p. administration, read-out: BRAIN/PLASMA.
[6] abbreviates: liver/plasma, i.p. administration, read-out: LIVER/PLASMA.

SMILES strings stand for the structures. Read-outs that look alike come from different tables or passages of the source.

Consider 1 molecule from article PMC8507746, “The FHP01 DDX3X Helicase Inhibitor Exerts Potent Anti-Tumor Activity In Vivo in Breast Cancer Pre-Clinical Models” (Cancers, 2021).

One may read the IC50 as the concentration that gives 50% inhibition. On to `CCCCc1cn(-c2ccc(NC(=O)Nc3ccccc3C(F)(F)F)cc2)nn1` [FHP01], for which the plasma concentration profile entry is given as “rapidly decreasing plasma concentration” in data set [1] (1 mg/kg i.v.), “high plasma concentration” in data set [1] (10 mg/kg i.p.) and “high plasma concentration” in data set [1] (50 mg/kg p.o.). Besides, the “WNT1- and WNT3A-dependent TCF/LEF transcriptional activity” value in data set [2] is reported as “strong inhibition”. Besides, the IC50 in the data set with T47D cells amounted to 10.6 µM; in the data set with MCF7 cells, 12.4 µM; in the data set on SKBR3 cells it was 13.5 µM. The molecule also had a 50% inhibitory concentration (IC50) at 72 h in data set [3] of 28.7 µM. Further, in data set [4] (24 h after administration), the tissue concentration entry was “below the level of quantitation”. For the same molecule, the BRAIN/PLASMA entry in data set [4] (i.p. administration, 12h) is reported as “BLQ”. Also, the LIVER/PLASMA result in data set [4] (i.p. administration, 12h) is given as “BLQ”. The results for the Kp at 4 h in data set [4] (setting [5]) and in data set [4] (setting [6]) were 0.5 ± 0.24 and 3.75 ± 1.06, respectively. Moreover, the Kp at 8 h in data set [4] (setting [5]) was 3.14 ± 0.74; in data set [4] (setting [6]) it was 6.32 ± 2.23.
